Values joined by “and” are separate entries in the source; they are usually repeats but may differ in a detail not shown here. Equal entries are not always repeated. Where two headings read alike, the source gives them in different places.
How the values were obtained:
[1] = Pharmacokinetic study of OSIM in rats, alone or after voriconazole, itraconazole or fluconazole pretreatment (plasma concentration by HPLC-MS/MS); type: in vivo, Sprague-Dawley rats; parameters: Conc. (plasma): unit not given here; conditions: for Conc. (plasma): individual rats; for AUC(0-inf) / AUC(0-t) / CL/F / Cmax / Tmax / Vd/F / half-life / MRT inf: male, Sprague-Dawley, rat, plasma, po, 10 mg/kg; for Vd/F: read-out: Vz/F; for MRT inf: read-out: MRT0–inf
Experimental: A liquid chromatography with tandem mass spectrometry (HPLC-MS/MS) system coupled to a JasperTM HPLC and Triple […] and equipped with an electrospray ionization (ESI) interface source (AB Sciex, Redwood City, CA, USA) was used for the analysis. […] Waters Corp., Milford, MA, USA) maintained at 45 °C. Mobile phase A was 0.2% formic acid in water, and mobile phase B was acetonitrile. […] Carry-over was minimized with methanol-acetonitrile-isopropanol-water solution (1:1:1:1, v/v/v/v) before and after the injection procedure. […] Subsequently, all samples were vortex-mixed for 30 s and were centrifuged at 14,000 × g for 10 min. Finally, each sample was reconstituted with an aliquot of mobile phase A. The sample was transferred to a 0.8 mL 96-well plate, of which 5 μL was injected into HPLC-MS/MS system for analysis. Twenty-four adult male Sprague-Dawley rats (220 ± 20 g) with specific pathogen free were supplied by the Laboratory Animal Center of Zhejiang Provincial People's Hospital. […] The study was performed in accordance with the Animal Care and Use Committee of Zhejiang Provincial People's Hospital (number: […], and FCZ were prepared in 0.3% carboxymethyl cellulose sodium (CMC-Na). After 12 h of fasting and free water consumption, the rats were randomly separated into four groups, and the sample size was based on a similar study using as few rats as possible (n = 6): control (equivalent volume of 0.3% CMC-Na), VCZ (20 mg/kg), ICZ (20 mg/kg), and FCZ (20 mg/kg) groups. Only those responsible for treatment management researchers know this group well. Each group was housed in a single cage. The rats in the four groups were orally dosed once daily with 0.3% CMC-Na, VCZ, ICZ, or FCZ, respectively; they reached steady-state exposure after five continuous days of dosing. […] All rats received an oral gavage dose of approximately equivalent volume treatment regimens (one mL). Rats were restrained on the rat fixator on the laboratory bench. […] Experimental data were given as mean ± standard deviation (SD). The mean concentration levels of OSIM versus time profile were drawn using GraphPad Prism 9.4 (GraphPad Software, Inc., San Diego, CA, USA). […] SPSS 26.0 was used for statistical analysis (IBM, Armonk, USA). Significant differences among the groups were identified using one-way ANOVA and Tukey test. P < 0.05 was considered significant.

[2] = parameters: method as in Brown et al., 2017; conditions: with ICZ compared with OSIM administered alone; ref Brown et al., 2017; cited from earlier work
[3] = ICZ group vs control, rats, P < 0.05
[4] = OSIM 10 mg/kg oral after fluconazole 20 mg/kg oral once daily for 5 days, rats, n = 6
[5] = OSIM 10 mg/kg oral after voriconazole 20 mg/kg oral once daily for 5 days, rats, n = 6
[6] = co-administered with itraconazole vs control, rats
[7] = co-administration with VCZ vs OSIM alone, rats
[8] = co-administration with fluconazole vs control, rats
[9] = OSIM 10 mg/kg oral after itraconazole 20 mg/kg oral once daily for 5 days, rats, n = 6
[10] = OSIM 10 mg/kg oral, control (0.3% CMC-Na), rats, n = 6, mean ± SD

## C=CC(=O)Nc1cc(Nc2nccc(-c3cn(C)c4ccccc34)n2)c(OC)cc1N(C)CCN(C)C [OSIM, Osimertinib]
[1]; Con group (OSIM alone), Time 0.25
  Conc. (plasma): 8.0671 and 11.9979
[1]; Con group (OSIM alone), Time 0.5
  Conc. (plasma): 12.1988 and 19.9452
[1]; Con group (OSIM alone), Time 1
  Conc. (plasma): 26.2008 and 25.1352
[1]; Con group (OSIM alone), Time 2
  Conc. (plasma): 34.4763 and 31.6327
[1]; Con group (OSIM alone), Time 4
  Conc. (plasma): 32.976 and 28.9864
[1]; Con group (OSIM alone), Time 5
  Conc. (plasma): 24.2861 and 21.3664
[1]; Con group (OSIM alone), Time 6
  Conc. (plasma): 16.055 and 19.5716 and 16.4633
[1]; Con group (OSIM alone), Time 8
  Conc. (plasma): 9.5939 and 12.9324 and 12.4752
[1]; Con group (OSIM alone), Time 12
  Conc. (plasma): 3.1238 and 5.2228 and 5.1031
[1]; Con group (OSIM alone), Time 24
  Conc. (plasma): 0.3493 and 0.667
[1]; Con group (OSIM alone), Time 48
  Conc. (plasma): 0.1948 and 0.7004
[1]; FCZ group vs control, rats
  AUC0–t of OSIM enhanced by: ~1.01 fold
  Cmax of OSIM enhanced by: approximately 0.53 fold
  reduction of Cl/F of OSIM: 49.49%
  reduction of Vz/F of OSIM: 55.89%
[1]; Flu group (fluconazole pretreatment), Time 0.25
  Conc. (plasma): 7.8097 and 15.8697
[1]; Flu group (fluconazole pretreatment), Time 0.5
  Conc. (plasma): 11.781 and 29.3217
[1]; Flu group (fluconazole pretreatment), Time 1
  Conc. (plasma): 19.1216
[1]; Flu group (fluconazole pretreatment), Time 2
  Conc. (plasma): 33.0063 and 43.3299
[1]; Flu group (fluconazole pretreatment), Time 3
  Conc. (plasma): 39.5899 and 53.0362
[1]; Flu group (fluconazole pretreatment), Time 4
  Conc. (plasma): 43.6983 and 40.9109
[1]; Flu group (fluconazole pretreatment), Time 5
  Conc. (plasma): 33.9054 and 36.7921
[1]; Flu group (fluconazole pretreatment), Time 6
  Conc. (plasma): 33.9688
[1]; Flu group (fluconazole pretreatment), Time 8
  Conc. (plasma): 18.8994 and 29.246 and 22.772
[1]; Flu group (fluconazole pretreatment), Time 12
  Conc. (plasma): 8.5799 and 18.5501 and 14.3797
[1]; Flu group (fluconazole pretreatment), Time 24
  Conc. (plasma): 1.2033 and 2.0928 and 2.1757
[1]; Flu group (fluconazole pretreatment), Time 48
  Conc. (plasma): 0.3201 and 0.2978
[1]; [3]
  decrease in Vz/F of OSIM: 38.08%
  decrease in t1/2 of OSIM: 25.41%
[1]; Itr group (itraconazole pretreatment), Time 0.25
  Conc. (plasma): 5.2753 and 10.1717
[1]; Itr group (itraconazole pretreatment), Time 0.5
  Conc. (plasma): 2.137 and 22.1484
[1]; Itr group (itraconazole pretreatment), Time 1
  Conc. (plasma): 14.402 and 30.439
[1]; Itr group (itraconazole pretreatment), Time 2
  Conc. (plasma): 19.1571 and 37.1482
[1]; Itr group (itraconazole pretreatment), Time 3
  Conc. (plasma): 31.5023
[1]; Itr group (itraconazole pretreatment), Time 4
  Conc. (plasma): 27.9801
[1]; Itr group (itraconazole pretreatment), Time 5
  Conc. (plasma): 22.7144 and 26.9275
[1]; Itr group (itraconazole pretreatment), Time 6
  Conc. (plasma): 27.5418 and 15.763 and 19.3207
[1]; Itr group (itraconazole pretreatment), Time 8
  Conc. (plasma): 24.0911 and 10.4766 and 13.0808
[1]; Itr group (itraconazole pretreatment), Time 12
  Conc. (plasma): 4.7714 and 7.383
[1]; Itr group (itraconazole pretreatment), Time 24
  Conc. (plasma): 1.7983 and 0.7083 and 1.0943
[1]; Itr group (itraconazole pretreatment), Time 48
  Conc. (plasma): 0.2444 and 0.2377
[1]; [4]
  MRT0–inf: 8.32 ± 0.47 h
  t1/2: 5.75 ± 0.25 h
  AUC(0-inf): 524 ± 92.4 ng·h/mL
  AUC(0-t): 521 ± 92.5 ng·h/mL
  CL/F: 325 mL/min/kg
  Cmax: 50.8 ± 8.41 ng/mL
  Tmax: 3.17 ± 0.98 h
  Vd/F: 162 ± 26.7 L/kg
[1]; [5]
  t1/2: 3.82 ± 0.34 h
  AUC(0-inf): 422 ± 57.9 ng·h/mL
  AUC(0-t): 422 ± 58.4 ng·h/mL
  CL/F: 401 mL/min/kg
  Cmax: 52.3 ± 10.5 ng/mL
  Tmax: 2.83 ± 0.41 h
  MRT inf: 6.83 ± 0.36 h
  Vd/F: 132 ± 17.9 L/kg
[1]; VCZ group vs control, rats
  decrease in Cl/F of OSIM: 37.74%
  decrease in Vz/F of OSIM: 64.03%
  decrease in t1/2 of OSIM: 42.56%
[1]; administration of OSIM with ICZ, rats
  other parameters (Cmax, Tmax, AUC, MRT, and Cl/F) compared with the control group: not significantly different
[1]; [6]
  increase in AUC0–t of OSIM: 34.80%
  increase in Cmax of OSIM: 13.91%
[1]; co-administration with FCZ vs control, rats
  effect on t1/2 and Tmax of orally administered OSIM: did not significantly alter
[1]; [7]
  increase in AUC0–t of OSIM: 62.56%
  increase in Cmax of OSIM: 58.04%
[1]; [8]
  increase in AUC0–t of OSIM: 100.98%
  increase in Cmax of OSIM: 53.45%
[1]; [9]
  AUC(0-inf): 357 ± 99.7 ng·h/mL
  AUC(0-t): 350 ± 96.3 ng·h/mL
  CL/F: 504 mL/min/kg
  Cmax: 37.7 ± 11.5 ng/mL
  Tmax: 3.83 ± 1.6 h
  half-life: 4.96 ± 1.1 h
  MRT inf: 7.51 ± 0.6 h
  Vd/F: 228 ± 127 L/kg
[1]; [10]
  AUC(0-inf): 264 ± 34.4 ng·h/mL
  AUC(0-t): 259 ± 33.1 ng·h/mL
  CL/F: 644 mL/min/kg
  Cmax: 33.1 ± 3.66 ng/mL
  Tmax: 2.33 ± 0.52 h
  half-life: 6.65 ± 0.48 h
  MRT inf: 7.61 ± 0.74 h
  Vd/F: 368 ± 36.3 L/kg
[1]; vor group (voriconazole pretreatment), Time 0.25
  Conc. (plasma): 7.2019 and 17.8367
[1]; vor group (voriconazole pretreatment), Time 0.5
  Conc. (plasma): 35.8513
[1]; vor group (voriconazole pretreatment), Time 1
  Conc. (plasma): 38.47
[1]; vor group (voriconazole pretreatment), Time 2
  Conc. (plasma): 40.5898 and 38.9958
[1]; vor group (voriconazole pretreatment), Time 3
  Conc. (plasma): 68.6321 and 46.961
[1]; vor group (voriconazole pretreatment), Time 4
  Conc. (plasma): 35.6688 and 44.311
[1]; vor group (voriconazole pretreatment), Time 5
  Conc. (plasma): 28.7864 and 35.6992
[1]; vor group (voriconazole pretreatment), Time 6
  Conc. (plasma): 35.4312 and 22.8434 and 29.124
[1]; vor group (voriconazole pretreatment), Time 8
  Conc. (plasma): 20.9535 and 15.9897 and 16.5811
[1]; vor group (voriconazole pretreatment), Time 12
  Conc. (plasma): 10.8434 and 7.3402 and 9.397
[1]; vor group (voriconazole pretreatment), Time 24
  Conc. (plasma): 0.9533 and 0.6206
[1]; vor group (voriconazole pretreatment), Time 48
  Conc. (plasma): 0.0227 and 0.021
[2]
  increase in AUC0–t of OSIM: approximately 8%
